Test results as given in the NIST ThermoML archive (doi:10.1016/j.jct.2016.03.001).

Assay: molar heat capacity at constant pressure
Details: 101.33 kPa, Crystal, Small sample (50 mg) DSC

O=[PH](O)O [phosphonic acid]
Details | molar heat capacity at constant pressure [J/K/mol]
243.2 K | 48.3
244.2 K | 48.54
245.2 K | 48.62
246.2 K | 48.87
247.2 K | 49.03
248.2 K | 49.36
249.2 K | 49.69
250.2 K | 49.77
251.2 K | 50.1
252.2 K | 50.35
253.2 K | 50.59
254.2 K | 50.59
255.2 K | 50.84
256.2 K | 51
257.2 K | 51.08
258.2 K | 51.17
259.2 K | 51.33
260.2 K | 51.49
261.2 K | 51.9
262.2 K | 52.15
263.2 K | 52.48
264.2 K | 52.72
265.2 K | 52.97
266.2 K | 53.22
267.2 K | 53.54
268.2 K | 53.87
269.2 K | 54.2
270.2 K | 54.28
271.2 K | 54.45
272.2 K | 54.69
273.2 K | 54.86
274.2 K | 55.35
275.2 K | 55.76
276.2 K | 57.81
277.2 K | 58.46
278.2 K | 57.32
279.2 K | 56.91
280.2 K | 57.15
281.2 K | 57.32
282.2 K | 57.56
283.2 K | 57.81
284.2 K | 57.64
285.2 K | 57.64
286.2 K | 57.89
287.2 K | 58.87
288.2 K | 60.18
289.2 K | 60.02
290.2 K | 60.02
291.2 K | 60.1
292.2 K | 60.59
293.2 K | 61.09
294.2 K | 61
295.2 K | 61.09
296.2 K | 61.5
297.2 K | 61.58
298.2 K | 62.07
299.2 K | 62.48
300.2 K | 62.81
301.2 K | 63.38
302.2 K | 63.63
303.2 K | 64.45
304.2 K | 64.94
305.2 K | 65.35
306.2 K | 65.76
307.2 K | 66.33
308.2 K | 66.74
309.2 K | 67.4
310.2 K | 67.65
311.2 K | 68.06
312.2 K | 68.71
313.2 K | 69.37
314.2 K | 70.11
315.2 K | 70.35
316.2 K | 71.09
317.2 K | 71.66
318.2 K | 72.48
319.2 K | 73.22
320.2 K | 73.88
321.2 K | 75.03
322.2 K | 75.93
323.2 K | 77.24
324.2 K | 78.55
325.2 K | 80.44
326.2 K | 81.91
327.2 K | 83.64
328.2 K | 85.11
